Test results published in paper PMC7566913, “Dual Gene Delivery Reagents From Antiproliferative Alkylphospholipids for Combined Antitumor Therapy” (Frontiers in Chemistry, 2020).

Assays:
A549 cells [1] = test: Cytotoxicity, MTT assay, A549; type: cell-based, human; details: Homo sapiens, A549, 24 h at 37°C
Description: The cells were exposed for a 24-h period to increasing concentration of the pro-APLs, ranging from 500 nM to 1 mM, and cell viability was assessed using the MTT colorimetric assay (Mosmann, [1983]). For the three cell lines, viability decreased in a dose-dependent manner in response to APLs and pro-APLs (Supplementary Figures 2–4). Using the best-fit regression curve method, the IC50 value (concentration that provokes 50% inhibition of the cell growth) was calculated for each compound (Table 4). The three cell lines responded to the compounds with varying sensitivities. […] This is attributed to enzyme-mediated hydrolysis of the pro-APL compounds in the complemented culture medium or in the intracellular compartment, competing with pure pH-controlled chemical hydrolysis. According to its structure, a pro-APL may or not be a substrate for specific lipases and, thus, may or not be hydrolyzed into the parent cytotoxic compound. […]
At confluency, cells were released […]
Cells were seeded into 96-well plates (Becton-Dickinson) at the required density (vide supra) in 100 µL of serum containing culture medium. […]
Mitochondrial activity measurements (MTT assay) was used to assess cytotoxicity of the compounds.
Lipid samples were prepared from a lipid film (3.6 µmol of compound evaporated from an ethanolic solution) hydrated with aqueous glucose 5 % and vigorously vortexed for 20 s before serial dilution in aqueous glucose 5 %. For addition of lipid samples to cell culture, part of the culture medium in the culture plates prepared the day before (25 µL) was removed and replaced by lipid samples (25 µL). Negative control was obtained by adding glucose 5 % to the cells instead of lipoplexes.
After a 24-h incubation period at 37 °C, culture supernatant was removed, cells were carefully washed with PBS and MTT (100 µL, 0.5 mg/mL) in complete culture medium was added. After a 1-h incubation period at 37 °C, the MTT sol ution was removed and DMSO (100 µL) was added to lyse cells and dissolve reduced MTT. Intensity of MTT reduction was then evaluated by measuring absorbance at 492 nm. Viability of cells treated with lipids or lipoplexes was expressed as the percentage of the absorbance measured in untreated cells. Value for each sample is the mean of triplicate determinations (± SD). IC50 values were determined within the 95 % confidence interval using nonlinear regression analysis with the GraphPad Prism software (GraphPad Software, San […]
All data are representative of a triplicate determination and are presented as the mean ± SD.
Statistical significance between treatments was assessed by one-way analysis of variance (ANOVA) followed by the Dunnett multiple comparison test, using the Kaleidagraph 4.5 software (Synergy Software, Reading, PA, USA). Data were considered as statistically significant for p value less than

A549 cells [2] = test: Gene transfer efficiency, pCMV-Gluc luciferase reporter gene assay; type: cell-based, human; details: A549, N/P 3, 1 eq. DOPE
Source text: The efficacy of the pro-APLs to mediate intracellular delivery of a plasmid DNA was examined in A549 human lung epithelial carcinoma cells using the pCMV-Gluc reporter gene encoding the luciferase of Gaussia princeps. This luciferase is secreted by cells and transgene expression can be conveniently assessed by standard bioluminescence measurements on aliquots of the cell culture supernatant, without need for prior cell lysis. Lipoplexes were formulated in glucose 5% at N/P ratios of 1, 3, and 5, with increasing amounts of DOPE as a helper lipid. They were deposited onto cells in the presence of 10% serum and luciferase activity was measured after 24 h (Figure 3). […] The influence of the nature of the pendant hydrophobic arm was also examined.
To investigate the effect of serum on the gene delivery properties of the APL prodrugs, cells were treated with lipoplexes in the presence of an increasing concentration of serum (Figure 5). Two DNA doses were considered.
Figure 5 Transfection efficiency of pro-APLs ME12 (A), PE12 (B), and EE12 (C) as a function of serum content. Pro-APL/DNA complexes were prepared at N/P 3, with 1 molar eq. of DOPE. A549 cells (6,000 cells/well) were seeded into 96-well plates in 100 μL of culture medium containing 10% serum. Twenty-four hours later, cell supernatant was replaced with culture medium complemented with increasing amounts of serum (from 10 to 75%) just before adding the lipoplexes (0.2 and 0.4 μg of DNA per well; light and deep purple bars, resp.). Control (light blue bar) refers to basal bioluminescence measured in untreated cells. […] Statistical significance vs. control. ***p < 0.001, **p < 0.01, *p < 0.05.

[3] = Hydrolytic stability of the APL prodrugs monitored by 31P-NMR; type: physicochemical
Source text: Aqueous formulation of the APL prodrugs produces nanosized lipid aggregates that most likely enter cells through the endocytosis pathway. To produce the expected intrinsic antineoplastic effect, APL-derived phosphotriesters need to be processed into the bioactive parent APLs. The hydrolysis of the prodrugs may be under the control of a chemical stimulus, e.g., a pH decrease as observed during the maturation of endosomes, or of degradation enzymes that massively enter the endosome compartment when continuing to lysosomes. To get some information on the transformation of pro-APLs into APLs, we monitored the hydrolysis of these compounds over time, at pH 7.4 and 4.5, conditions that mimick the extracellular milieu and the environment of the late endosome, respectively. This monitoring was realized using ^31P-NMR spectroscopy, according to a previously reported method (Pierrat et al., [2013b]). Whatever the compound investigated, only one single ^31P resonance did appear during the course of the experiments, corresponding to that of the parent APL. This confirmed that hydrolysis of the pro-APLs selectively occurred at the acetal center. […] As a general trend, hydrolysis of the pro-APLs was […] under neutral conditions (i.e., pH 7.4) than under acidic ones (i.e., pH 4.5). […] Besides, substitution of one hydrogen atom with a methyl group on the acetal bridge accelerated the rate of hydrolysis of the prodrugs. […] Indeed, in biological media, the enzyme-mediated hydrolysis of such compounds can proceed far quicker than “simple” chemical hydrolysis under pH control (Pierrat et al., [2012]). […]

With `CCCCCCCCCCCCCCCCCCOP(=O)(OCOC(=O)CCCCCCCCCCC)OC1CC[N+](C)(C)CC1.[Cl-]` (centres unmarked) [PE12, 4-((((Dodecanoyloxy)methoxy)(octadecyloxy)phosphoryl)oxy)-1,1-dimethylpiperidin-1-ium chloride] the IC50 (A549 cells [1]) was 139 ± 4 µM, the “Serum content up to which significant transgene expression was mediated” value (A549 cells [2]; DNA dose 0.2 μg/well) was “up to 50 % serum” and the “Serum content up to which transfection activity extended” value (A549 cells [2]; DNA dose 0.4 μg/well) was “up to 75 % serum”. For the same molecule, the “H120 (hydrolysis rate after a 120-h incubation period)” value ([3]; pH 4.5) was 2% and the “H120 (hydrolysis rate after a 120-h incubation period)” value ([3]; pH 7.4) was 16%.
